“Also recorded” adds a separate entry of the source.
Assays:
[1] = Cell viability, Alamar Blue fluorescence assay in primary cortical cultures; assay type: cell-based, mice; conditions: mouse, primary cortical neuron cultures from mouse embryos, 72 hours in culture, mean ± standard error, three experiments, read-out: Viability of cortical neurons, % with respect to the control
Description: (§1) In order to perform the experiments of the present invention, one of the following were used: an in vitro cortical neuron model with simultaneous overexpression of tau and β-amyloid obtained from an Alzheimer's disease model in triple transgenic mice (3×Tg−AD or 3×Tg), obtainable by means of the process explained in international application WO2003/053136 and provided by the holders of said application, or an in vitro cortical neuron model obtained from non-transgenic mice (No Tg). The triple transgenic neuronal model presents simultaneous overexpression of the human transgenes for presenilin (PS1M146V), the β-amyloid precursor protein (APPSwe) and the tau protein (tauP301L), which leads to an Alzheimer's model with overexpression of β-amyloid and hyperphosphorylation of tau.
(§2) The primary cortical cultures were obtained from 3×Tg−AD mice embryos of 15-17 days of gestation and the wild cultures were obtained from control non-3×Tg−AD mice embryos of the same strain. The effect of the compound used in this invention on the cell viability was determined by means of a fluorescence assay using the Alamar Blue viability indicator. In order to perform the assay, primary cortical cultures seeded in 96-well plates were used. The neuronal cells were incubated with the compound of the present invention, which was dissolved in dimethyl sulfoxide (DMSO) and added to the culture medium at different concentrations, and the effect thereof on the neuronal viability was determined at different times of treatment in vitro. The maximum concentration of gambierol evaluated in vitro was 20 μM and the concentration of Alamar Blue was 10%. The reaction volume used was 200 μl. The fluorescence was measured at wavelengths of 530 nm (excitation) and 590 nm (emission).

cortical neurons = experiment: as above; assay type: cell-based, mice; conditions: up to a concentration of 20 μM
Description: as §1, §2

β-amyloid = experiment: Western Blot of intracellular β-amyloid (6E10 antibody) in cortical neurons from triple transgenic mice; assay type: cell-based; conditions: 10 μM gambierol between days 3 and 7 of culture; 3×Tg-AD neocortical cultures
Description: (§3) In order to perform the experiments of the present invention, one of the following were used: an in vitro cortical neuron model with simultaneous overexpression of tau and β-amyloid obtained from an Alzheimer's disease model in triple transgenic mice (3×Tg−AD or 3×Tg), obtainable by means of the process explained in international application WO2003/053136 and provided by the holders of said application, or an in vitro cortical neuron model obtained from non-transgenic mice (No Tg). […]
(§4) In order to determine the effect of the compound of the present invention on the expression of tau and β-amyloid, Western Blot techniques were used. […] For the Western Blot studies, the protein expression was evaluated using the primary antibodies anti-β-amyloid 6E10 at a 1:500 dilution, anti-Tau AT8 (phosphorylated Tau at Ser 202, 1:1000 dilution) and anti-Tau AT100 (phosphorylated Tau at Thr 212 and Ser 214, 1:1000 dilution). […]
(§5) For the Western Blot assays, the neuronal cultures treated with the compound of the present invention were washed with cold PBS and lysed in 50 mM Tris-HCl buffer (pH 7.4), which contains 150 mM NaCl, 1 mM EDTA, 1% Triton X-100, 2 mM DTT, 2.5 mM PMSF, 40 mg/ml aprotinin, 4 mg/ml leupeptin, 5 mM NaF, 1 mM Na3VO4, 1 mg/ml pepstatin A and 1 mg/ml benzamidine. The total protein concentration was determined by Bradford's method, using bovine albumin as the standard. […]

[2] = system: phosphorylated Tau at Ser 202; experiment: Western Blot of phosphorylated tau at Ser 202 (AT8 antibody) in cortical neurons from triple transgenic mice; assay type: cell-based; conditions: 10 μM gambierol between days 3 and 7 of culture; 3×Tg cultures; p<0.05, n=3
Description: as §3, §4, §5

[3] = system: phosphorylated Tau at Thr 212 and Ser 214; experiment: Western Blot of phosphorylated tau at Thr 212 and Ser 214 (AT100 antibody) in cortical neurons from triple transgenic mice; assay type: cell-based; conditions: 10 μM gambierol between days 3 and 7 of culture; 3×Tg cultures; p<0.05, n=3
Description: as §3, §4, §5

total tau = experiment: Western Blot of baseline total tau (Tau46 antibody) in control neurons from non-transgenic mice; assay type: cell-based
Experimental: (§6) In order to determine the effect of gambierol on the baseline phosphorylation of tau, Western Blot techniques were used. An in vitro cortical nueron model obtained from non-transgenic mice was used. The neuronal cultures and the processing of the samples were performed in the same manner as in the preceding example. The data obtained were corrected with the quantity of β-actin as a function of the protein content of the samples.

[4] = system: phosphorylated tau at residue Ser 202; experiment: Western Blot of baseline phosphorylated tau at Ser 202 in control neurons from non-transgenic mice; assay type: cell-based
Experimental: as §6

[5] = system: extracellular β-amyloid peptide (β-amyloid 1-42 or β-amyloid 1-40); experiment: ELISA of extracellular β-amyloid in culture medium of cortical neurons; assay type: cell-based, mice; conditions: triple transgenic cultures treated with gambierol compared to those not treated
Experimental: The levels of extracellular β-amyloid in the culture medium of cortical neurons obtained from triple transgenic mice or from control mice treated with gambierol were determined by means of commercial ELISA kits for the detection of β-amyloid 1-42 or β-amyloid 1-40, following the manufacturer's recommended instructions (Covance). These kits are composed of plates treated with antibodies which capture the β-amyloid peptide at the amino-terminal end thereof. The standards with known quantities of β-amyloid, and the culture medium collected from the neuronal preparations with unknown quantities of β-amyloid, were added to the wells and incubated. The plates were washed in order to eliminate the unbound peptide and incubated for 2 hours in the presence of an antibody that binds to the carboxyl-terminal end of the β-amyloid peptide. Subsequently, the plates were washed and incubated with a peroxidase-conjugated secondary antibody. […] The optical density was measured by the absorbance at 495 nm, and a straight-line pattern was obtained (FIG. 4) with the quantities of β-amyloid added, wherefrom the quantity of β-amyloid in the culture medium collected from the neuronal preparations treated with the compounds of the present invention could be extrapolated (FIG. 5).

[6] = 10 μM gambierol, mean ± standard error, two experiments

C=CC/C=C\C=C/C1OC2CC3OC4CCC5OC6CC7(C)OC8(C)C(O)CC(CCCO)OC8CC7OC6CC5OC4(C)CC3(C)OC2C=CC1(C)O (stereo not drawn) [gambierol]
viability at 72 h, 0.25 μM ([1]; 0.25 μM gambierol): 103 ± 5.2%
viability at 72 h, 0.5 μM ([1]; 0.5 μM gambierol): 110 ± 1.4%
viability at 72 h, 1 μM ([1]; 1 μM gambierol): 105 ± 6.3%
viability at 72 h, 5 μM ([1]; 5 μM gambierol): 106 ± 4.7%
viability at 72 h, 10 μM ([1]; 10 μM gambierol): 105 ± 5.8%
viability at 72 h, 20 μM ([1]; 20 μM gambierol): 102 ± 3.8%
Effect on cell viability of cortical neuronal cultures (in words) (cortical neurons): does not cause a reduction in the viability; also recorded: did not modify the cell viability
Overexpression of intracellular β-amyloid (6E10, Western Blot), in words (β-amyloid): significant decrease; also recorded: reduces
Phosphorylated tau at Ser 202 (AT8, Western Blot), in words [2]: significant decrease; also recorded: reduces
Phosphorylated tau at Thr 212 and Ser 214 (AT100, Western Blot), in words [3]: significant decrease; also recorded: reduces
Baseline quantity of total tau in control neurons (in words) (total tau): did not affect
Baseline levels of total tau in control neurons, % with respect to the control (total tau; [6]): 111 ± 3.9%
Baseline level of phosphorylated tau at residue Ser 202 in control neurons (in words) [4]: did not affect
Levels of phosphorylated tau at residue Ser 202 in control neurons, % with respect to the control [4, 6]: 107 ± 8.1%
Levels of extracellular β-amyloid peptide secreted into the culture medium (in words) [5]: decrease
